Measured values reported in ChEMBL document CHEMBL4680147, “Discovery of 6'-chloro-N-methyl-5'-(phenylsulfonamido)-[3,3'-bipyridine]-5-carboxamide (CHMFL-PI4K-127) as a novel Plasmodium falciparum PI(4)K inhibitor with potent antimalarial activity against both blood and liver stages of Plasmodium” (Eur J Med Chem, 2020).
The source made the active and inactive calls. The calls are words filed in the database; no cut-off is given here.

Legend:
[1] = Inhibition of recombinant His-tagged Plasmodium falciparum 3D7 PI4K expressed in baculovirus infected Sf9 cells using PI:PS as substrate incubated for 1 hr in presence of ATP by ADP-Glo kinase assay
[2] = test system: Plasmodium berghei; test: (§1) Antimalarial activity against blood stage luciferase-expressing Plasmodium berghei sporozoites infected in BALB/c mouse assessed as suppression of parasitemia at 1 to 15 mg/kg, po treated for 2 hrs followed by parasite infection and measured upto 8 days post-infection by luciferase based real-time imaging analysis; assay type: functional, organism-based; details: dose 1-15 mg/kg, time 194.0 hrs
[3] = test system: Plasmodium falciparum; test: Antimalarial activity against mefloquine/chloroquine/pyrimethamine resistant Plasmodium falciparum Dd2 infected in human O+ erythrocytes incubated for 72 hrs by SYBR Green 1 dye based fluorescence assay; assay type: functional, organism-based; details: Dd2, Erythrocyte
[4] = Inhibition of human PIK3C2alpha by ADP-Glo kinase assay
[5] = Selectivity index, ratio of IC50 for human VPS34 to IC50 for recombinant His-tagged Plasmodium falciparum 3D7 PI4K expressed in baculovirus infected Sf9 cells
[6] = AUC(0 to t) in Sprague-Dawley rat at 10 mg/kg, po; assay type: ADME, organism-based; design: dose 10 mg/kg; details: in vivo
[7] = target: T1, Phosphatidylinositol 4,5-bisphosphate 3-kinase catalytic subunit delta isoform (Homo sapiens, UniProt O00329); test: Inhibition of human PI3Kdelta by ADP-Glo kinase assay
T1 sequence (O00329 whole entry): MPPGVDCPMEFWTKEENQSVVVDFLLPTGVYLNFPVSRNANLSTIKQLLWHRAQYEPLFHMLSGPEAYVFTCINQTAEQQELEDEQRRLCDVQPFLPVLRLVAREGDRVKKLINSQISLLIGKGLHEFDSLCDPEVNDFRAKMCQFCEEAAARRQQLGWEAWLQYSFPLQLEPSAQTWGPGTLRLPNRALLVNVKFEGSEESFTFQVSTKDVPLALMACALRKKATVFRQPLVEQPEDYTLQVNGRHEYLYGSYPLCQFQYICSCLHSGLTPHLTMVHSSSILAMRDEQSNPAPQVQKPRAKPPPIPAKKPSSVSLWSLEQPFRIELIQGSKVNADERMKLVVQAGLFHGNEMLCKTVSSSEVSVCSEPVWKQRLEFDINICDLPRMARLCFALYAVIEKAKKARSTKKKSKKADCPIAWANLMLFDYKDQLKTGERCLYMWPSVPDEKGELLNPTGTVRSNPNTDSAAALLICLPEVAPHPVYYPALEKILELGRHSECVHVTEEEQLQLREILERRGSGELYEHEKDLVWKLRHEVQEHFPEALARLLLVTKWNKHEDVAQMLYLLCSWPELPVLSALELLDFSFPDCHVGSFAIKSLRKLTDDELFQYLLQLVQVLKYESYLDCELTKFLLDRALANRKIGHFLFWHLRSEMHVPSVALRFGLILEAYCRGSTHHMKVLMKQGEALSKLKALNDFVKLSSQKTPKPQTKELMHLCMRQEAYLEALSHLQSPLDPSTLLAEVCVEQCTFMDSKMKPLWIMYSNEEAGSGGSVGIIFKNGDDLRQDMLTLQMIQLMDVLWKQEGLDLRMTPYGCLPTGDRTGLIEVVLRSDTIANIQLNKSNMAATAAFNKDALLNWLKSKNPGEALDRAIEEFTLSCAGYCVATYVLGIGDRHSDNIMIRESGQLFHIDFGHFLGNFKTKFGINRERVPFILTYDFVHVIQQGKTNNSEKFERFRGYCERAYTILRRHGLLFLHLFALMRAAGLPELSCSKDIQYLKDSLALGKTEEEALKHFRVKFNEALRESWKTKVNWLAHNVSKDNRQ

[8] = Apparent volume of distribution in mouse at 1 mg/kg, iv; assay type: ADME, organism-based; details: in vivo, read-out: Vz
[9] = Cmax in mouse at 10 mg/kg, po; assay type: ADME, organism-based; design: route oral, dose 10 mg/kg; details: in vivo
[10] = test system: Plasmodium falciparum; test: Antimalarial activity against sulphadoxine-resistant blood stage Plasmodium falciparum 3D7 infected in human O+ erythrocytes incubated for 72 hrs by SYBR Green 1 dye based fluorescence assay; assay type: functional, organism-based; details: 3D7, Erythrocyte
[11] = Selectivity index, ratio of IC50 for human PI4K3beta to IC50 for recombinant His-tagged Plasmodium falciparum 3D7 PI4K expressed in baculovirus infected Sf9 cells
[12] = Cmax in Sprague-Dawley rat at 10 mg/kg, po; assay type: ADME, organism-based; design: route oral, dose 10 mg/kg; details: in vivo
[13] = Mean residence time (0 to t) in mouse at 10 mg/kg, po; assay type: ADME, organism-based; details: in vivo
[14] = test system: Plasmodium falciparum; test: Antimalarial activity against pyrimethamine/chloroquine resistant Plasmodium falciparum PC26 infected in human O+ erythrocytes incubated for 72 hrs by SYBR Green 1 dye based fluorescence assay; assay type: functional, organism-based; details: PC26, Erythrocyte
[15] = test system: Plasmodium yoelii; test: Antimalarial activity against blood stage Plasmodium yoelii infected in BALB/c mouse assessed as suppression of parasitemia administered once daily via oral gavage for 7 consecutive days starting from 1 day post-infection and observed for 20 days by Giemsa-staining based microscopic analysis; assay type: functional, organism-based; details: dose 60-80 mg/kg/day, time 20.0 day
[16] = test system: Plasmodium falciparum; test: Antimalarial activity against chloroquine resistant Plasmodium falciparum FAB9 infected in human O+ erythrocytes incubated for 72 hrs by SYBR Green 1 dye based fluorescence assay; assay type: functional, organism-based; details: FAB9, Erythrocyte
[17] = Half life in Sprague-Dawley rat at 10 mg/kg, po; assay type: ADME, organism-based; details: in vivo
[18] = test system: Plasmodium falciparum; test: Antimalarial activity against artemisinin and piperaquine-phosphate resistant Plasmodium falciparum 6320 infected in human O+ erythrocytes incubated for 72 hrs by SYBR Green 1 dye based fluorescence assay; assay type: functional, organism-based; details: Plasmodium falciparum, 6320, Erythrocyte
[19] = Selectivity index, ratio of IC50 for human PI3Kbeta to IC50 for recombinant His-tagged Plasmodium falciparum 3D7 PI4K expressed in baculovirus infected Sf9 cells
[20] = Apparent clearance in Sprague-Dawley rat at 10 mg/kg, po; assay type: ADME, organism-based; details: in vivo, read-out: CL(app) (converted)
[21] = test system: Plasmodium berghei; test: as §1, with “liver” for “blood”, “1” for “1 to 15”, “196 hrs” for “8 days”, “based in vivo” for “based”; assay type: functional; details: time 198 hrs
[22] = Half life in mouse at 10 mg/kg, po; assay type: ADME, organism-based; details: in vivo
[23] = AUC(0 to infinity) in Sprague-Dawley rat at 10 mg/kg, po; assay type: ADME, organism-based; design: time infinity, route oral, dose 10 mg/kg; details: in vivo
[24] = target: Phosphatidylinositol 4-kinase alpha (Homo sapiens, UniProt P42356); test: Inhibition of human PI4K3alpha by ADP-Glo kinase assay
[25] = test system: Plasmodium falciparum; test: Antimalarial activity against pyrimethamine/chloroquine resistant Plasmodium falciparum CP286 infected in human O+ erythrocytes incubated for 72 hrs by SYBR Green 1 dye based fluorescence assay; assay type: functional, organism-based; details: CP286, Erythrocyte
[26] = test system: Plasmodium falciparum; test: Antimalarial activity against Plasmodium falciparum GB4 infected in human O+ erythrocytes incubated for 72 hrs by SYBR Green 1 dye based fluorescence assay; assay type: functional, organism-based; details: GB4, Erythrocyte
[27] = AUC(0 to t) in mouse at 1 mg/kg, iv; assay type: ADME, organism-based; design: dose 1 mg/kg; details: in vivo
[28] = Selectivity index, ratio of IC50 for human PI3Kalpha to IC50 for recombinant His-tagged Plasmodium falciparum 3D7 PI4K expressed in baculovirus infected Sf9 cells

Phosphatidylinositol 4-kinase alpha, sequence (P42356 whole entry): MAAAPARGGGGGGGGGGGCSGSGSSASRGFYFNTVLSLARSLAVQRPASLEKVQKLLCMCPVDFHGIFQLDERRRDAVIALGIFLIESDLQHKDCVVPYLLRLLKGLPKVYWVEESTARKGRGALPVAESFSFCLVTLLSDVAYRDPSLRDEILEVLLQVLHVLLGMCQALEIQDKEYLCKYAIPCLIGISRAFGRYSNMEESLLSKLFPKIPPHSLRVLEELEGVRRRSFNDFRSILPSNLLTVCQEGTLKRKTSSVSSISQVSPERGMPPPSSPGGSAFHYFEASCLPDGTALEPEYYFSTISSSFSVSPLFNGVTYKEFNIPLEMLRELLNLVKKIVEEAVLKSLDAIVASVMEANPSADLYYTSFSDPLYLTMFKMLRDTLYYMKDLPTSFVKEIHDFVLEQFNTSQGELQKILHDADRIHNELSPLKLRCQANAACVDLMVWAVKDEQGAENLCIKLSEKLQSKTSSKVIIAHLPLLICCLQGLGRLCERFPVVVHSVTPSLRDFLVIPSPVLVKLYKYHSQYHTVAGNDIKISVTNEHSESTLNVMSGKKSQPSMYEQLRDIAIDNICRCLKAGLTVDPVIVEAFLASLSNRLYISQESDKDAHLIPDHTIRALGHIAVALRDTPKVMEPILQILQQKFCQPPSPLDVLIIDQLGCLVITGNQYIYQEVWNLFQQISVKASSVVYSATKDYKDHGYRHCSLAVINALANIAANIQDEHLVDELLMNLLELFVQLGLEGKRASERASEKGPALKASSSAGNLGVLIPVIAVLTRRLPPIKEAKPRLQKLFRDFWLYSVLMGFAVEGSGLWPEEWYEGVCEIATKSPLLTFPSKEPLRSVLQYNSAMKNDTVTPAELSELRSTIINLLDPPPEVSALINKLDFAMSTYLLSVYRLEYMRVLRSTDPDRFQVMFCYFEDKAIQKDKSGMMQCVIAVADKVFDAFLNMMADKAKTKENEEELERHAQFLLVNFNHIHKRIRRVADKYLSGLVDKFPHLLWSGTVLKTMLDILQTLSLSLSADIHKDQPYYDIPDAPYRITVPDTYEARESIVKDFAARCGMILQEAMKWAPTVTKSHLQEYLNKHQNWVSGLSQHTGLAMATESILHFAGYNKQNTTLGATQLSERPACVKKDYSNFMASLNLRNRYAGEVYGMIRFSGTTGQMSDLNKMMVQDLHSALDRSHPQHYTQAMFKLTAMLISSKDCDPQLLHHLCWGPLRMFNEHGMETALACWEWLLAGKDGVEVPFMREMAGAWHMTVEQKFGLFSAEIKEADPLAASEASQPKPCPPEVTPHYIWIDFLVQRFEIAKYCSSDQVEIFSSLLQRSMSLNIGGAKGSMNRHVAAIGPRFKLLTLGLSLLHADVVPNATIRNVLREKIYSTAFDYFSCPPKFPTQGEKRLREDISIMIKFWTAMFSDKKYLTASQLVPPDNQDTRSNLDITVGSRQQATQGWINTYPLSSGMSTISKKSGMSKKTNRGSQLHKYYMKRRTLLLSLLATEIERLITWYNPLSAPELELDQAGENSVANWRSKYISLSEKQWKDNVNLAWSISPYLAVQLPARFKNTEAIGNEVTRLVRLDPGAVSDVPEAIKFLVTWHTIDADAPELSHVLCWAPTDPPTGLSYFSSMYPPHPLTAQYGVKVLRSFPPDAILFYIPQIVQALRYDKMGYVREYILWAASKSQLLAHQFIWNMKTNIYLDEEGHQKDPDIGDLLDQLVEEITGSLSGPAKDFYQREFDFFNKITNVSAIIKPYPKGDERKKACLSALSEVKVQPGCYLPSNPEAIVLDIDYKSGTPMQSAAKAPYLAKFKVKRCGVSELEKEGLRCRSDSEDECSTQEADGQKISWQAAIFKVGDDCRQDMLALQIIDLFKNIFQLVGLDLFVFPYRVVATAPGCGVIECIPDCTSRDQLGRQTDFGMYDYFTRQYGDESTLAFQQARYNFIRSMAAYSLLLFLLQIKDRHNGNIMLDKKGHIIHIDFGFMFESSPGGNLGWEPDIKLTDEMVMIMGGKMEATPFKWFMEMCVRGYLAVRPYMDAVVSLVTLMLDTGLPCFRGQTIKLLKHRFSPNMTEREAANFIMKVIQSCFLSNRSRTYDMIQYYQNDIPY

Compound: CNC(=O)c1cncc(-c2cnc(Cl)c(NS(=O)(=O)c3ccccc3)c2)c1
- IC50 [1]: 0.0009 µM
- Activity [2]: Active
- EC50 [3]: 0.0303 µM
- IC50 [4]: > 10 µM
- Ratio IC50 [5]: 400
- AUC(0-t) [6]: 19.3 µg·h/mL
- IC50 [7]: 0.104 µM
- Vd [8]: 12.1 L/kg
- Cmax [9]: 1.54 µg/mL
- EC50 [10]: 0.0251 µM
- Ratio IC50 [11]: 400
- Cmax [12]: 4.34 µg/mL
- MRT last [13]: 4.4 h
- EC50 [14]: 0.044 µM
- Activity [15]: Dose dependent effect
- EC50 [16]: 0.0236 µM
- half-life [17]: 2.9 h
- EC50 [18]: 0.0247 µM
- Ratio IC50 [19]: 400
- CL/F [20]: 0.5 L/h/kg
- Activity [21]: 100%
- half-life [22]: 3.6 h
- AUC(0-inf) [23]: 19.3 µg·h/mL
- IC50 [24]: 0.165 µM
- EC50 [25]: 0.0241 µM
- EC50 [26]: 0.0478 µM
- AUC(0-t) [27]: 0.327 µg·h/mL
- Ratio IC50 [28]: 100
